Reference: publication PMC5456363 (PLoS ONE, 2017)
Non-standard residues stand in square brackets, D forms with d. Residues, ends and D or L forms follow the SMILES beside them.

How the values were obtained:
thrombin = system: thrombin; design: method as in PMID 18665823; conditions: recalcified citrated plasma; cited from earlier work
[1] = Peptide stability in fresh blood taken by cardiac puncture into a syringe containing the peptide (blood, B); type: in vitro ADME, CD-1 mice; conditions: blood, 1 h
Procedure: (§1) All stability tests were performed at least in triplicates.

[2] = design: method as in PMID 27067364; conditions: 25% aqueous commercial serum; cited from earlier work
human α-thrombin = target: T1, human α-thrombin (Homo sapiens, UniProt P00734); test: α-Thrombin stability assay; type: in vitro ADME; conditions: cleavage C-terminal to Arg4; 0, 1, and 24 hours
T1 construct: with human α-Thrombin for 0, 1, and 24 hours
Procedure: Supplementary file pone.0178943.s003.tif: S3 Fig Stability of Api88, Api137, and LVPR-Onc112 against human α-thrombin. Chromatograms recorded after incubation of Api88 (a), Api137 (b), or LVPR-Onc112 (c) with human α-Thrombin for 0, 1, and 24 hours (UV absorbance). […] (TIF) Click here for additional data file.
S1 Text. Method α-Thrombin stability assay.

[3] = Stability and metabolites across fresh blood, serum and plasma (all six matrices); conditions: for Overall stability / Sequential stability: fresh blood, serum, and plasma
Procedure: Aqueous peptide solutions (3 g/L) were filled in a sterile syringe (1 mL, Dispomed Witt oHG, Gelnhausen, Deutschland) through the front end, the stainless-steel needle was attached, and blood (200 to 300 μL) was collected via cardiac puncture to obtain a peptide concentration of approximately 31,5 μmol/L. The syringe was carefully disconnected from the needle and sealed while keeping the needle in the heart. A second empty syringe was attached to the needle and 0.5 to 0.8 mL blood were collected. In parallel, the sealed syringe was gently shaken for one minute to mix the peptide solution with blood and further incubated on a Stuart Rotator SB3 (Barloworld, Scientific LTD, Stone, Staffordshire, U.K.) placed in an incubator at 37°C. […] The plasma sample designated as “blood” (B) was precipitated with trichloroacetic acid (TCA), as described below. Blood collected in the second syringe was transferred to a polypropylene tube (Eppendorf AG, Hamburg, Germany) and a BD Microtainer® serum separator tube (SST; Becton, Dickinson and Company). Polypropylene tubes were centrifuged immediately (12,000 x g, 2 to 4 min) to obtain “direct serum” (DS) as supernatant, whereas the serum separator tubes were incubated (room temperature, 1 h), centrifuged (12,000 x g, 2 min), and collected as “activated serum” (AS). Pooled mouse serum was purchased from PAA Laboratories GmbH (Pasching, Austria) and pooled CD-1 mouse plasma containing K2EDTA or lithium heparin were obtained from Innovative Research (Novi, MI, USA).
Peptides were mixed with serum or plasma to a final concentration of 31.5 μmol/L and incubated (37°C, 750 rpm; Thermomixer, Eppendorf AG, Hamburg, Germany). Aliquots (20 or 40 μL) taken after 0 and 60 min (0, 10 and 30 min for Api88) were mixed with TCA to obtain a final concentration of 3% (w/v) and incubated on ice (10 min). After centrifugation (12,000 x g, 5 min), the supernatant was neutralized with sodium hydroxide (1 mol/L) and stored at −20°C. Samples were analyzed by RP-HPLC on a Jupiter C18-column (internal diameter: 2 mm, length: 150 mm, particle size: 5 μm, pore size: 30 nm) using a linear aqueous acetonitrile gradient containing TFA (0.1%, v/v) as ion pair reagent. Peptides were detected by recording the absorbance at 214 nm and quantified by their peak areas relative to the initial peak areas (0 min). All stability tests were performed at least in triplicates.
Metabolites were identified on an Agilent 1100 LC system (Agilent Technologies, Santa Clara, CA, USA) coupled on-line via a UV-detector (absorbance recorded at 214 nm) to the electrospray ionization source on an ion trap mass spectrometer (ESI-IT-MS, Esquire HCT, Bruker Daltonics GmbH, Bremen, Germany). Samples were separated on an Aqua C18-column (inner diameter: 2 mm, length: 150 mm, particle size: 3 μm, pore size: 12.5 nm, Phenomenex; column temperature: 60°C) at a flow rate of 0.2 mL/min using a linear gradient of aqueous acetonitrile in the presence of formic acid (FA; 0.1%, v/v) as ion pair reagent. […] The ESI-IT-MS was operated in positive ion mode. Ionization was carried out at 365°C (source temperature) using nitrogen as curtain gas (40 psi) and dry gas (9 L/min). Mass spectra were acquired for an m/z range from 400 to 1300 at a scan rate of 8100 m/z-units per second in standard enhanced mode.

[4] = Peptide stability in commercial serum (CS); type: in vitro ADME, mouse
Procedure: as §1

[5] = Peptide stability in direct serum (DS); type: in vitro ADME, CD-1 mice; conditions: 37°C, 1 h, 31.5 μmol/L
Procedure: as §1

[6] = Peptide stability in activated serum (AS); type: in vitro ADME, CD-1 mice; conditions: 37°C, 1 h, 31.5 μmol/L
Procedure: as §1

[7] = intravenous application in mice; cited from earlier work
[8] = Peptide stability in EDTA plasma (EP); type: in vitro ADME, CD-1 mouse; conditions: 37°C, 1 h, 31.5 μmol/L
Procedure: as §1

[9] = mouse serum; cited from earlier work
[10] = Peptide stability in heparin plasma (HP); type: in vitro ADME, CD-1 mouse; conditions: 37°C, 1 h, 31.5 μmol/L
Procedure: as §1

For `O=C(O)CN(CCN(CC(=O)O)CC(=O)O)CC(=O)O` [EDTA, ethylenediaminetetraacetic acid], the “thrombin reactivated in presence of the anticoagulant” value (thrombin) is listed as 0.39 U/mL.

In the case of `CC[C@H](C)[C@H](NC(=O)[C@@H](CCCNC(=N)N)NC(=O)[C@H](CCCNC(=N)N)NC(=O)[C@@H]1CCCN1C(=O)[C@@H]1CCCN1C(=O)[C@H](CCCNC(=N)N)NC(=O)[C@@H]1CCCN1C(=O)[C@H](CCCNC(=N)N)NC(=O)[C@@H]1CCCN1C(=O)[C@H](CC(C)C)NC(=O)[C@H](Cc1ccc(O)cc1)NC(=O)[C@@H]1CCCN1C(=O)[C@@H]1CCCN1C(=O)[C@H](CCCCN)NC(=O)[C@H](CC(=O)O)NC(=O)[C@@H](NC(=O)[C@H](CCCNC(=N)N)NC(=O)[C@@H]1CCCN1C(=O)[C@@H](NC(=O)[C@@H](N)CC(C)C)C(C)C)C(C)C)C(=O)N[C@@H](Cc1ccc(O)cc1)C(=O)N[C@@H](CC(N)=O)C(=O)N[C@H](CCCNC(=N)N)C(N)=O` [LVPR-Onc112, LVPRVDKPPYLPRPRPPRrIYNr-NH2] (H-LVPRVDKPPYLPRPRPPR[dR]IYN[dR]-NH2), the remaining at 1 h ([1]; CD-1, mouse, fresh whole blood, 37°C, 31.5 μmol/L, read-out: intact peptide remaining relative to time zero) is given as 67 ± 4%, the “sum of prodrug and released Onc112 relative to initial amount” value [1] is given as 85% and the “Onc112 released from linker peptide” value [2] is given as 57%. For the same compound, the “hydrolysis by thrombin compared with Api88” value (human α-thrombin) was “slower”, the “sum of prodrug and released Onc112 relative to initial amount” value ([3]; all matrices except for blood, 1 h) was about 100% and the Overall stability [3] was “Low”. For the same compound, the Sequential stability [3] was “Blood > Serum > Plasma” and the “prodrug expected to be present in full serum” value ([4]; extrapolated from 25% serum data assuming three-fold faster degradation in full serum) was 14%.

With `CC[C@H](C)[C@H](NC(=O)[C@@H](CCCNC(=N)N)NC(=O)[C@H](CCCNC(=N)N)NC(=O)[C@@H]1CCCN1C(=O)[C@@H]1CCCN1C(=O)[C@H](CCCNC(=N)N)NC(=O)[C@@H]1CCCN1C(=O)[C@H](CCCNC(=N)N)NC(=O)[C@@H]1CCCN1C(=O)[C@H](CC(C)C)NC(=O)[C@H](Cc1ccc(O)cc1)NC(=O)[C@@H]1CCCN1C(=O)[C@@H]1CCCN1C(=O)[C@H](CCCCN)NC(=O)[C@H](CC(=O)O)NC(=O)[C@@H](N)C(C)C)C(=O)N[C@@H](Cc1ccc(O)cc1)C(=O)N[C@@H](CC(N)=O)C(=O)N[C@H](CCCNC(=N)N)C(N)=O` [Onc112, VDKPPYLPRPRPPRrIYNr-NH2] (H-VDKPPYLPRPRPPR[dR]IYN[dR]-NH2) the “intact peptide remaining relative to time zero” value [5] was “at least 96%”, the “intact peptide remaining relative to time zero” value ([1]; 37°C, 31.5 μmol/L) was “at least 96%” and the “intact peptide remaining relative to time zero” value [6] was “at least 96%”. The “plasma levels relative to Onc72” value [7] was “around fivefold”, the “Matrix in which the metabolite was identified” value ([3]; LC-MS, peak area at least 1% of initially incubated peptide, B blood, DS direct serum, AS activated serum, CS commercial serum, EP EDTA plasma, HP heparin plasma, All = all six) was “All” and the Overall stability [3] was “High”. The Sequential stability [3] was “Blood = Plasma = Serum”, the metabolised at 1 h, 31.5 μmol/L ([4]; mouse, commercial pooled serum, commercial serum, 1 hour, read-out: peptide degraded) was under 2% and the “intact peptide remaining relative to time zero” value [8] was “at least 96%”. For the same compound, the serum half-life time [9] was “more than 8 h” and the “intact peptide remaining relative to time zero” value [10] was “at least 96%”.

In the case of heparin, the “thrombin reactivated in presence of the anticoagulant” value (thrombin) is given as 0.06 U/mL.
